Measured values from ChEMBL document CHEMBL1135425, “Antitumor agents. 213. Modeling of epipodophyllotoxin derivatives using variable selection k nearest neighbor QSAR method” (J Med Chem, 2002).

system: Nucleic Acid; test: Ability to form intracellular covalent DNA topoisomerase II complex; activity expressed as the percentage of cellular protein-DNA complex formed (exp-2); format: functional, cell-based

`COc1cc([C@@H]2c3cc4c(cc3C(Nc3ccccc3)[C@H]3COC(=O)[C@H]23)OCO4)cc(O)c1O` (stereo not given in full) gave a Complex formation of 128%.

molecular target: T1, DNA topoisomerase II (Homo sapiens) (UniProt P11388+Q02880); test: Percentage of intracellular covalent DNA-topoisomerase II complexes formed; format: cell-based

Compared with `COc1cc([C@@H]2c3cc4c(cc3[C@@H](NC(=O)c3ccc(N)cc3)[C@H]3COC(=O)[C@H]23)OCO4)cc(OC)c1O`, `COc1cc([C@@H]2c3cc4c(cc3[C@@H](Nc3cc(N)ccc3O)[C@H]3COC(=O)[C@H]23)OCO4)cc(OC)c1O` is lower in Complex formation: 120% for the first, 11% for the second.

First: COc1cc([C@@H]2c3cc4c(cc3[C@@H](NCc3ccc(C(F)(F)F)cc3)[C@H]3COC(=O)[C@H]23)OCO4)cc(OC)c1O
Second: COc1cc([C@@H]2c3cc4c(cc3[C@@H](NCc3ccc(C#N)cc3)[C@H]3COC(=O)[C@H]23)OCO4)cc(OC)c1O
The Complex formation of the first is lower: 99% for the first, 284% for the second.

First: COc1cc([C@@H]2c3cc4c(cc3[C@@H](OC(=O)c3cccc(N)c3)[C@H]3COC(=O)[C@H]23)OCO4)cc(OC)c1O
Second: COc1cc([C@@H]2c3cc4c(cc3[C@@H](Nc3cccc(N)c3)[C@H]3COC(=O)[C@H]23)OCO4)cc(OC)c1O
The Complex formation of the first is lower: 100% for the first, 140% for the second.

Going from `COc1ccc(NC2c3cc4c(cc3[C@@H](c3cc(O)c(O)c(OC)c3)[C@H]3C(=O)OC[C@H]23)OCO4)cc1OC` (stereo not given in full) to `COc1cc([C@@H]2c3cc4c(cc3C(Nc3ccc(O)cc3)[C@H]3COC(=O)[C@H]23)OCO4)cc(O)c1O` (stereo not given in full), the Complex formation rises from 69% to 83%.

Compared with `COc1cc([C@@H]2c3cc(O)c(O)cc3[C@@H](Nc3cccc(O)c3)[C@H]3COC(=O)[C@H]23)cc(OC)c1OC`, `COc1cc(N[C@@H]2c3cc4c(cc3[C@@H](c3cc(OC)c(O)c(OC)c3)[C@H]3C(=O)OC[C@@H]32)OCO4)c(C)cc1[N+](=O)[O-]` is lower in Complex formation: 4% for the first, 3.5% for the second.

First: COc1cc([C@@H]2c3cc4c(cc3[C@@H](N)[C@H]3COC(=O)[C@H]23)OCO4)cc(OC)c1O
Second: CCC(C)N[C@@H]1c2cc3c(cc2[C@@H](c2cc(OC)c(O)c(OC)c2)[C@H]2C(=O)OC[C@@H]21)OCO3 (stereo not given in full)
The Complex formation of the first is lower: 36.4% for the first, 73% for the second.

`COc1cc([C@@H]2c3cc4c(cc3[C@@H](Nc3ccc(NC(=O)c5cc(NC(=O)c6cc([N+](=O)[O-])cn6C)cn5C)cc3)[C@H]3COC(=O)[C@H]23)OCO4)cc(OC)c1O` gave a Complex formation of 26%.

molecular target: T1, DNA topoisomerase II (Homo sapiens); test: Ability to form intracellular covalent DNA topoisomerase II complex; activity expressed as the percentage of cellular protein-DNA complex formed (exp-1); format: cell-based

In the case of `COc1cc([C@@H]2c3cc4c(cc3C(Nc3ccccc3)[C@H]3COC(=O)[C@H]23)OCO4)cc(O)c1O` (stereo not given in full), the Complex formation is reported as 105%.
